Laboratory results: publication PMC5522529, “Mechanisms of Paradoxical Activation of AMPK by the Kinase Inhibitors SU6656 and Sorafenib” (Cell Chemical Biology, 2017)

Assays:
Conditions in all cases: 1 hr
[1] = biological target: T1, α1 kinase domain (α1-KD, residues 1–312) (Homo sapiens, UniProt Q13131); test: Activity of FLAG-tagged α1 kinase domain expressed in HEK293 cells; assay type: cell-based
T1 construct: amplifying residues 1-312 with an N-terminal FLAG-tag; expressed in transfected cells; host or cells: HEK293 (transient transfection, pcDNA5 FRT)
T1 sequence (Q13131 1-312): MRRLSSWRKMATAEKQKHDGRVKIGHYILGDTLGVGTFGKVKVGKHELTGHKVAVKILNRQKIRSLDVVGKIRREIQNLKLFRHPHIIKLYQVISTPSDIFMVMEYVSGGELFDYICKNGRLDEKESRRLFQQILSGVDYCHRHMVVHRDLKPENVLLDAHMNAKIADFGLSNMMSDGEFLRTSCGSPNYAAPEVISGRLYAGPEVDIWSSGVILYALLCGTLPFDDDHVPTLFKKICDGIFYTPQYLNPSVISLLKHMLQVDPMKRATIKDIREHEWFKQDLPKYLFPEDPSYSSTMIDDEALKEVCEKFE
Source text: We next expressed an FLAG-tagged α1 kinase domain (α1-KD, residues 1–312) by transient transfection in HEK293 cells, treated the cells with various AMPK activators, and then assayed both the expressed α1-KD (precipitated using anti-FLAG) and endogenous full-length α1 complexes (precipitated using anti-α1 antibodies recognizing an epitope outside the α1-KD). […] This was also observed with A23187, as expected since this ionophore increases intracellular Ca^2+ and activates the alternate upstream kinase CaMKK2.
The α1-KD was precipitated using anti-FLAG and endogenous AMPK complexes using anti-α1 antibody, and activity determined. Results (mean ± SD, n = 2) are expressed relative to activities in DMSO controls. (B) Western blots (n = 2) using the indicated antibodies; samples from experiment in (A). (C) DNAs encoding FLAG-tagged AMPK-α1 (WT or AT mutant) were expressed by transient transfection in HEK293 cells, the cells treated with increasing concentrations of SU6656 for 1 hr, AMPK complexes precipitated with anti-FLAG, and activity measured. Results (mean ± SD, n = 3) are expressed relative to the DMSO control. […] Results (mean ± SD, n = 3) are expressed relative to the DMSO control. **p < 0.01, ***p < 0.001, ****p < 0.0001, ^†††p < 0.001; ns, not significant.
A plasmid encoding the AMPK-α2 kinase domain (α2-KD) was made by amplifying residues 1-310 with 5' BamH1 and 3' Xho1 sites, the resulting PCR product was cloned into pGEX6P2. Point mutations were generated using the Quikchange II site-directed mutagenesis kit (Stratagene) and confirmed by DNA sequencing.

ACC = ACC phosphorylation in HEK293 cells (western blot); assay type: cell-based, human
Protocol: Figure 1 SU6656 Activates AMPK but Not AMPK-Related Kinases (A) HEK293 cells were incubated with the indicated concentrations of SU6656 or berberine (300 μM) for 1 hr; total AMPK activity was assayed in immunoprecipitates (top; mean ± SEM, n = 4), and phosphorylation of AMPK (Thr172), ACC (Ser80), and Raptor (Ser792) analyzed by western blotting (bottom; n = 2). (B) HEK293 cells were incubated with 100 μM SU6656 (1 hr), AMPK complexes containing α1, α2, β1, and β2 immunoprecipitated using isoform-specific antibodies, and AMPK activity measured (mean ± SEM, n = 4). (C) HeLa cells stably expressing LKB1 ([Fogarty et al., 2010]) were incubated with 100 μM SU6656 for 1 hr, AMPK or individual ARKs immunoprecipitated, and kinase assays carried out (antibodies that distinguish MARK2/MARK3 were not available, so they were assayed together). Results are means ± SEM (n = 2). In all panels, asterisks indicate significant differences from controls without SU6656. *p < 0.05, **p < 0.01, ****p < 0.0001.
(B) WT or RG cells were treated as in (A) and nucleotides extracted for analysis (mean ± SD, n = 3). […] (E) (See also Figure S2) Time courses of cellular oxygen uptake before and after addition of the indicated concentrations of sorafenib (SO, μM), SU6656 (100 μM) or phenformin (PHEN, 10 mM) (mean ± SEM, n = 4). (F) Effect of various concentrations of sorafenib or phenformin (10 mM) on activation (top, mean ± SEM, n = 3) or phosphorylation (bottom) of AMPK in cells expressing wild-type AMPK-γ2 (WT) or the R531G mutant AMPK-γ2 (RG). In all panels, asterisks show significant differences from DMSO controls (ns, not significant). […]
Cells were incubated for 60 min and AMPK activity measured; results in the top panel are means ± SEM (n = 8), with significant differences from the DMSO control indicated (ns, not significant). […]
SDS-PAGE was performed using precast Bis-Tris 4–12% gradient polyacrylamide gels in the MOPS buffer system (ThermoFisher Scientific). […] Protein concentrations were determined by Coomassie Blue binding with bovine serum albumin as standard ([Bradford, 1976]). […]

[2] = biological target: T2, AMPK-γ2 R531G (RG) mutant (Homo sapiens, UniProt Q9UGJ0, R531G); test: AMPK activity in HEK293 cells expressing R531G AMPK-γ2; assay type: cell-based
T2 construct: expressed in transfected cells
T2 sequence (Q9UGJ0 whole entry R531G): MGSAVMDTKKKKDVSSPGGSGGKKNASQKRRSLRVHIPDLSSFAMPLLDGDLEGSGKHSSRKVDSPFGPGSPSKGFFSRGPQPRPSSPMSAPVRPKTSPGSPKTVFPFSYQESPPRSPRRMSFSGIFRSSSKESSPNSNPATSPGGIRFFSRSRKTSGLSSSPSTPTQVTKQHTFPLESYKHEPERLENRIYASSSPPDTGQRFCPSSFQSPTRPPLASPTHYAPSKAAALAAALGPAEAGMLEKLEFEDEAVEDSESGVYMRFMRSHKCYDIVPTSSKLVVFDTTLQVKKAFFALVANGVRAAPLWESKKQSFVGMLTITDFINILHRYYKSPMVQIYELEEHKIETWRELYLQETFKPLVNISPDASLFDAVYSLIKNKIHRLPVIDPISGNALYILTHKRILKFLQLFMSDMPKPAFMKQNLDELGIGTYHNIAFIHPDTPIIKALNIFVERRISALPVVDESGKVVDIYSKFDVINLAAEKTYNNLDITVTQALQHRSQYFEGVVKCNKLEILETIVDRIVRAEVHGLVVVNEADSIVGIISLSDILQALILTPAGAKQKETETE
Source text: The next possibility was that, like several other AMPK-activating drugs, SU6656 inhibits mitochondrial ATP synthesis, and thus activates AMPK indirectly by increasing cellular AMP/ADP. To test this, we used cell lines inducibly expressing either WT AMPK-γ2 or an AMP/ADP-resistant R531G (RG) mutant ([Hawley et al., 2010]). […] There were no effects of SU6656 on cellular oxygen uptake, unlike berberine. Subsequent addition of the uncoupler 2,4-dinitrophenol (DNP), which prevents the respiratory chain from being limited by ADP supply, increased oxygen uptake identically in control and SU6656-treated cells but had no effect following berberine, as expected for a complex I inhibitor (Figure S2).
(B) WT or RG cells were treated as in (A) and nucleotides extracted for analysis (mean ± SD, n = 3). […] (E) (See also Figure S2) Time courses of cellular oxygen uptake before and after addition of the indicated concentrations of sorafenib (SO, μM), SU6656 (100 μM) or phenformin (PHEN, 10 mM) (mean ± SEM, n = 4). (F) Effect of various concentrations of sorafenib or phenformin (10 mM) on activation (top, mean ± SEM, n = 3) or phosphorylation (bottom) of AMPK in cells expressing wild-type AMPK-γ2 (WT) or the R531G mutant AMPK-γ2 (RG). In all panels, asterisks show significant differences from DMSO controls (ns, not significant). In (B), daggers (†) show significant differences between results in WT and RG cells. *p < 0.05, **p < 0.01, ***p < 0.001, ****p < 0.0001, ^††††p < 0.0001.
HEK-293 cells stably expressing tetracycline-inducible FLAG-tagged human AMPK-γ2, or an R531G mutant, were generated by introducing the corresponding DNAs into Flp-In™ T-REx™ 293 cells ([Auciello et al., 2014]). Expression of the FLAG-tagged constructs was induced for 48 hr using tetracycline (1 μg.ml^-1) prior to addition of compounds under test. Transient transfections were carried out 36-48 hr prior to experiments, using Fugene 6 according to manufacturers’ instructions.

CN(C)S(=O)(=O)c1ccc2c(c1)/C(=C/c1cc3c([nH]1)CCCC3)C(=O)N2 [SU6656]
kinase activity / Thr172 phosphorylation [1]: increased kinase activity
ACC phosphorylation (ACC): increased phosphorylation
AMPK activity [2]: activated AMPK and enhanced Thr172 phosphorylation in both WT and RG cells

COc1ccc2cc3[n+](cc2c1OC)CCc1cc2c(cc1-3)OCO2 [berberine]
kinase activity / Thr172 phosphorylation [1]: failed to activate or cause Thr172 phosphorylation

CNC(=O)c1cc(Oc2ccc(NC(=O)Nc3ccc(Cl)c(C(F)(F)F)c3)cc2)ccn1 [sorafenib]
ACC phosphorylation (ACC): promoted Thr172 and ACC phosphorylation
AMPK activity [2]: Neither AMPK activity nor Thr172 phosphorylation were significantly elevated
